Where “and” joins values, the source holds several entries; their conditions need not be identical. Equal values may be shown once. Read-outs that look alike come from different tables or passages of the source.
Columns and labels:
guinea pigs [1] = experiment: Dermal sensitization test in guinea pigs (Buehler)
guinea pigs [2] = details: Positive Control animals, historical data, cited from earlier work; for Individual Bodyweight Initial: baseline
guinea pigs [3] = details: 0.4 mL, historical data, cited from earlier work
S. aureus = system: S. aureus
Procedure: (§1) Phenol Resistance Control: The phenol resistance of the test organisms were determined per the AOAC method.
(§2) Final phenol dilutions were made the day of use from stock phenol within manufacturer's stability specification.

P. aeruginosa = system: P. aeruginosa
Procedure: as §1, §2

S. cholerasuis = system: S. cholerasuis
Procedure: as §1, §2

T. mentagrophytes = system: T. mentagrophytes
Procedure: Phenol Resistance Control: The phenol resistance of Trichophyton mentagrophytes was determined per the AOAC method. Final phenol dilutions were made the day of use from stock phenol within manufacturer's stability specification.

[4] = historical positive naive control animals, 0.04% in acetone
[5] = Dilution 1:60, Exposure Time 5 Minutes
[6] = Dilution 1:60, Exposure Time 10 Minutes
[7] = Dilution 1:70, Exposure Time 5 Minutes
[8] = Dilution 1:70, Exposure Time 10 Minutes
[9] = Dilution 1:90, Exposure Time 5 Minutes
[10] = Dilution 1:90, Exposure Time 10 Minutes
[11] = Dilution 1:90, Exposure Time 15 Minutes

SMILES: O=[N+]([O-])c1ccc(Cl)c([N+](=O)[O-])c1 [DNCB, 1-Chloro-2,4-Dinitrobenzene]
- erythema score, induction phase (guinea pigs [1]; historical positive control animals, 0.08% in 80% aqueous ethanol): 0.5-3
- sites with very faint erythema (0.5) 24 hours after challenge (guinea pigs [1]; [4]): two
- time for irritation to clear from affected sites (guinea pigs [1]; [4]): ≤ 48 h
- Individual Bodyweight Initial (guinea pigs [2]; female guinea pigs): 393 g and 404 g and 415 g and 411 g and 408 g and 428 g and 372 g
- Individual Bodyweight Initial (guinea pigs [2]; male guinea pigs): 406 g (2×) and 379 g and 413 g and 423 g and 408 g and 386 g and 407 g
- Individual Bodyweight Day After Challenge (guinea pigs [2]; female guinea pigs): 568 g and 660 g and 581 g and 536 g and 591 g and 544 g and 609 g
- Individual Bodyweight Day After Challenge (guinea pigs [2]; male guinea pigs): 579 g and 544 g and 600 g and 618 g and 668 g and 551 g and 639 g and 599 g
- Preliminary Irritation Testing Score (guinea pigs [3]; Concentration 0.02% w/w in acetone): 0
- Preliminary Irritation Testing Score (guinea pigs [3]; Concentration 0.03% w/w in acetone): 0 and 0.5
- Preliminary Irritation Testing Score (guinea pigs [3]; Concentration 0.04% w/w in acetone): 0 and 0.5

SMILES: Oc1ccccc1 [Phenol, phenol]
- Phenol Resistance, growth in subculture (S. aureus; [5]): +
- Phenol Resistance, growth in subculture (S. aureus; [6]): +
- Phenol Resistance, growth in subculture (S. aureus; Dilution 1:60, Exposure Time 15 Minutes): 0
- Phenol Resistance, growth in subculture (S. aureus; [7]): +
- Phenol Resistance, growth in subculture (S. aureus; [8]): +
- Phenol Resistance, growth in subculture (S. aureus; Dilution 1:70, Exposure Time 15 Minutes): +
- Phenol Resistance, growth in subculture (P. aeruginosa; Dilution 1:80, Exposure Time 5 Minutes): 0
- Phenol Resistance, growth in subculture (P. aeruginosa; Dilution 1:80, Exposure Time 10 Minutes): 0
- Phenol Resistance, growth in subculture (P. aeruginosa; Dilution 1:80, Exposure Time 15 Minutes): 0
- Phenol Resistance, growth in subculture (P. aeruginosa; [9]): +
- Phenol Resistance, growth in subculture (P. aeruginosa; [10]): +
- Phenol Resistance, growth in subculture (P. aeruginosa; [11]): +
- Phenol Resistance, growth in subculture (S. cholerasuis; [9]): +
- Phenol Resistance, growth in subculture (S. cholerasuis; [10]): 0
- Phenol Resistance, growth in subculture (S. cholerasuis; [11]): 0
- Phenol Resistance, growth in subculture (S. cholerasuis; Dilution 1:100, Exposure Time 5 Minutes): +
- Phenol Resistance, growth in subculture (S. cholerasuis; Dilution 1:100, Exposure Time 10 Minutes): +
- Phenol Resistance, growth in subculture (S. cholerasuis; Dilution 1:100, Exposure Time 15 Minutes): 0
- Phenol Resistance, growth in subculture (T. mentagrophytes; [5]): 0
- Phenol Resistance, growth in subculture (T. mentagrophytes; [6]): 0
- Phenol Resistance, growth in subculture (T. mentagrophytes; [7]): +
- Phenol Resistance, growth in subculture (T. mentagrophytes; [8]): +

Reference: US20110212933A1, “Antiseptic Compositions for the Treatment of Infections” (priority 2008, published 2011)
